From publication PMC5298231, “The Malaria Parasite's Lactate Transporter PfFNT Is the Target of Antiplasmodial Compounds Identified in Whole Cell Phenotypic Screens” (PLoS Pathogens, 2017)
“And” between values parts separate entries of the source, which are not always exact repeats. Equal values may be shown once.

Columns and labels:
native PfFNT = biological target: T1, native PfFNT (Plasmodium falciparum, UniProt O77389); type: cell-based; conditions: native PfFNT in Xenopus oocytes; pH 6.4, 27.5°C, 10 min; mean ± SEM, n = 4; read-out: IC50, inhibition of PfFNT-mediated L-[14C]lactate transport
T1 construct: expressed in transfected cells; host or cells: Xenopus laevis oocytes (cRNA microinjected, 30 ng)
T1 sequence (O77389 whole entry): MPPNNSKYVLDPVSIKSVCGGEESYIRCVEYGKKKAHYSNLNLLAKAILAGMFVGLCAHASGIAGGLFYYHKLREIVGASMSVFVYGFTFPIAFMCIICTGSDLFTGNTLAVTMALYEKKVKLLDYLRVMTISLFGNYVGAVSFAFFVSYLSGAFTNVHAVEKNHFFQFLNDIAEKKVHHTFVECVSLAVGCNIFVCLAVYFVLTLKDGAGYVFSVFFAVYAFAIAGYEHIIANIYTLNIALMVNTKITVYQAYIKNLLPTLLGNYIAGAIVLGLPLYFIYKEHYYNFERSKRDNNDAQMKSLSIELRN
Method: (§1) The PfFNT-mediated uptake of L-[^14C]lactate by oocytes expressing native PfFNT (black symbols) or oocytes expressing PfFNT^Gly107Ser (white symbols) was measured in the presence of a range of different concentrations of MMV007839 (A) and MMV000972 (B). […] To enable a visual comparison between the native PfFNT and PfFNT^Gly107Ser datasets, only part of the concentration range used for the latter is shown in the main panels. The insets show the data obtained for PfFNT^Gly107Ser over the full concentration range tested. In all cases, the data are averaged from four independent experiments (using oocytes from different frogs) and are shown ± SEM. The uptake was measured at 27.5°C over 10 min at pH 6.4 using 2.7 μM L-[^14C]lactate and 600 μM unlabelled L-lactate.
(§2) The oocyte expression vectors containing PfFNT, PfENT1 and PfCRT were made previously. […] The uptake of radiolabelled substrates was measured 2–5 days post-injection at 27.5°C in ND96 buffer (containing 96 mM NaCl, 2 mM KCl, 1 mM MgCl2, 1.8 mM CaCl2, 10 mM MES and 10 mM Tris-base; pH-adjusted to the value specified in the relevant Figure legends). […] The oocytes were then transferred to separate wells of a 96-well plate, lysed with 10% SDS, and the radioactivity measured as described previously.

[1] = ref [36]; cited from earlier work
[2] = tested on: PfFNT^Gly107Ser mutant parasites (MMV007839-selected culture B); assay: L-[14C]lactate uptake by isolated PfFNT Gly107Ser mutant parasites; conditions: read-out: IC50, inhibition of L-[14C]lactate transport, pH 6.1, 4°C, 20 s, mean ± SEM
[3] = tested on: erythrocytes infected with 3D7 trophozoites (extracellular medium); assay: LC-MS metabolite profiling, extracellular medium of parasitised erythrocyte suspensions; conditions: 6 μM
[4] = tested on: erythrocytes infected with 3D7 trophozoites; type: cell-based, Plasmodium falciparum; conditions: 1 μM, within 10 min; mean ± SEM, n = 3
Description: (§3) Fig 6 The effect of MMV007839 on the volume of parasites and parasitised erythrocytes. […] The data are expressed as a percentage volume increase relative to the starting volume, which for isolated parasites (A) ranged from 35 fL to 46 fL in the individual experiments, and for intact infected erythrocytes (B) ranged from 73 fL to 79 fL. In both cases the data shown are the mean ± SEM from three independent experiments performed on different days. For each condition, the (pre-normalised) volume data for each time point greater than 0 was tested for statistical significance compared to the time zero data for that condition; **P < 0.01, ***P < 0.001.
(§4) The volume of saponin-isolated 3D7 trophozoites and of erythrocytes infected with 3D7 trophozoites was measured using a Beckman Coulter Multisizer 4 fitted with a 100 μm ‘aperture tube’. […] The electrolyte solution within the aperture tube was the same as the Experimental Saline Solution except that it lacked glucose. For experiments on infected erythrocytes, the infected cells were separated from uninfected erythrocytes using a Miltenyi Biotec VarioMACS Magnet and the cells were maintained at 37°C in bicarbonate-free RPMI supplemented with 25 mM HEPES, additional glucose (11 mM) and 0.2 mM hypoxanthine, and pH-adjusted to 7.40. For these measurements the electrolyte solution within the aperture tube differed only from this medium in that it was not supplemented with hypoxanthine or additional glucose. For each measurement of cell volume, approximately 20,000 pulses (each corresponding to the passage of a single cell through the aperture) were recorded. The median volume of the cells within each sample was determined by fitting a log Gaussian distribution curve to the population data.

[5] = tested on: saponin-isolated 3D7 P. falciparum trophozoites; type: cell-based, Plasmodium falciparum; conditions: 1 μM, within 10 min; mean ± SEM, n = 3
Description: as §3, §4

PfFNT^Gly107Ser = biological target: T2, PfFNT^Gly107Ser (Plasmodium falciparum, UniProt O77389, G107S); assay: PfFNT-mediated L-[14C]lactate uptake by Xenopus oocytes expressing PfFNT Gly107Ser; type: cell-based; conditions: PfFNT Gly107Ser in Xenopus oocytes; pH 6.4, 27.5°C, 10 min; mean ± SEM, n = 4; read-out: IC50, inhibition of PfFNT-mediated L-[14C]lactate transport
T2 construct: expressed in transfected cells; host or cells: Xenopus laevis oocytes (cRNA microinjected, 30 ng)
T2 sequence (O77389 1-309 G107S): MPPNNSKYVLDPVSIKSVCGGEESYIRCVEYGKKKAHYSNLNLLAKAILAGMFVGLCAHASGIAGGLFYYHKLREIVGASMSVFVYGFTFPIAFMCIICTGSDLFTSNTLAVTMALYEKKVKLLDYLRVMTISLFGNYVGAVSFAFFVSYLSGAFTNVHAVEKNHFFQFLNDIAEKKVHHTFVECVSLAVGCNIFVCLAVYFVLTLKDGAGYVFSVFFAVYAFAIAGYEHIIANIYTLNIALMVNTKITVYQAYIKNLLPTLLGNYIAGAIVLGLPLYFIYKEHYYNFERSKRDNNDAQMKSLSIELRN
Method: as §1, §2

[6] = tested on: MMV007839-selected culture B (PfFNT Gly107Ser); assay: Parasite proliferation assay, MMV007839-selected culture B; type: cell-based, Plasmodium falciparum; conditions: MMV007839-selected culture B; mean ± SEM; read-out: IC50 value, growth inhibition
Method: Parasite proliferation was measured in 96-well plates using a fluorescent DNA-intercalating dye. The assays were initiated with erythrocytes infected with predominantly ring-stage parasites, and the starting parasitaemia was 0.5–1% and the haematocrit was 1%.
For MMV007839-selected culture A, the drug concentration was increased by 5 nM increments on Day 18, Day 21, and every two days thereafter. […] The cultures were provided with fresh medium and blood and diluted to reduce the parasitaemia as needed.

non-injected oocytes = type: cell-based, Xenopus laevis; conditions: full range of inhibitor concentrations

COc1ccc2c(c1)OC(O)(C(F)(F)C(F)(F)F)CC2=O (stereo not drawn) [MMV007839]
IC50 (native PfFNT): 22.5 nM and 23 nM | Toxicity in Malaria Box toxicity testing [1]: display toxicity in some assays | IC50 [2]: 16300 ± 4400 nM | Extracellular lactate level, treated vs untreated ([3]; not statistically significant): decreased | Extracellular pyruvate level, treated vs untreated ([3]; not statistically significant): increased | Extracellular α-ketoglutarate level, treated vs untreated ([3]; not statistically significant): decreased | Extracellular 3-phosphoglycerate level, treated vs untreated ([3]; statistically significant): increased | Extracellular phosphoenolpyruvate level, treated vs untreated ([3]; statistically significant): increased | Volume increase of erythrocytes infected with 3D7 trophozoites [4]: 5.4 ± 1.0 fL | Volume increase of erythrocytes infected with 3D7 trophozoites relative to starting volume [4]: 7.2 ± 1.3% | Volume increase of isolated parasites [5]: 5.1 ± 0.8 fL | Volume increase of isolated parasites relative to starting volume [5]: 13.1 ± 2.8% | IC50 (PfFNT^Gly107Ser): 1300 ± 200 nM | IC50 [6]: 37500 ± 2700 nM | Effect on L-[14C]lactate transport into control (non-injected) oocytes (non-injected oocytes): no changes
